Assay results taken from patent US7772253B2 (Hoffman-La Roche Inc., priority 2005, dated 2010).

target: T1, human subtype 5 somatostatin receptor (Homo sapiens, UniProt P35346); test: Binding of 125-I-labeled 11-Tyr somatostatin-14 tracer to membranes of CHO cells expressing SSTR5; details: CHO cell membranes, Ki calculated from IC50 by Cheng-Prussoff equation
T1 construct: host or cells: CHO cell line, stably transfected; membranes
Protocol: A CHO cell line stably transfected with a plasmid encoding the human subtype 5 somatostatin receptor (GenBank accession number D16827) was obtained from Euroscreen. Cells were cultured and used for binding and functional assays.
Membranes of these cells were prepared by sonication in the presence of protease inhibitors and subsequent fractionating centrifugation. The protein concentration in the membrane preparation was determined using a commercial kit (BCA kit, Pierce, USA). Membranes were stored at −80° C. until use. After thawing, membranes were diluted in assay buffer (50 mM TRIS-HCl at pH 7.4, 5 mM MgCl2 and 0.20% BSA (bovine serum albumine)) and subjected to dounce homogenization.
For binding studies, 0.1 ml membrane suspension, corresponding to app. 6×10^−15 mol receptor, was incubated for 1 hour at room temperature with 0.05 nM ^125-I-labeled tracer (11-Tyr somatostatin-14, Perkin-Elmer) and either test compounds in varying concentrations or, for the determination of non-specific binding, 0.001 mM non-labeled somatostatin-14 (Sigma-Aldrich, Buchs, Switzerland). The incubation was stopped by filtration through GF/B glassfiber filters (Unifilter, Perkin-Elmer) and washing with ice-cold wash buffer (50 mM Tris-HCl at pH 7.4). The bound radioactivity was measured after application of a scintillation cocktail (Microscint 40, Perkin-Elmer) and expressed as disintegrations per minute (dpm).
The receptor concentration was determined in a prior saturation experiment where a fixed, arbitrary amount of membranes was incubated with a concentration range of radio-labeled tracer. This allows estimating the total number of specific binding sites per amount of protein (i.e. Bmax), typically between 1 and 5 pmol/mg.
The concentration of the test compound required to result in half maximal inhibition of binding of the radio-labeled tracer (IC50) was estimated from a concentration-versus-dpm graph. The binding affinity (Ki) was calculated from the IC50 by applying the Cheng-Prussoff equation for single binding sites.

T1 sequence (P35346 whole entry): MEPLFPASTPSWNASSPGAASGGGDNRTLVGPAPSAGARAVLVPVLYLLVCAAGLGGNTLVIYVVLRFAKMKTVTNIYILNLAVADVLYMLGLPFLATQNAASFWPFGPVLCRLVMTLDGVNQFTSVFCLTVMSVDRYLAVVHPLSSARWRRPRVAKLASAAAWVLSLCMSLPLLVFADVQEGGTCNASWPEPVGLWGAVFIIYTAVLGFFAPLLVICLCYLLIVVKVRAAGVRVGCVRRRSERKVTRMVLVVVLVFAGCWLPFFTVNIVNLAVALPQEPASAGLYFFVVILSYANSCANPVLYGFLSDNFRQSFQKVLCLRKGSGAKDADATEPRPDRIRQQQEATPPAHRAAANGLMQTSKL

| Ki [nM] | SMILES |
| --- | --- |
| 38 | CCOc1cc(CN2CCC(NC(=O)c3cncc(C)c3)CC2)ccc1Cl [Example 30, N-[1-(4-Chloro-3-ethoxy-benzyl)piperidin-4-yl]-5-methyl-nicotinamide] |
| 19 | CCOC(=O)c1c(OCC)cc(CN2CCC(NC(=O)c3cncc(C)c3)CC2)cc1OCC [Example 35, N-[1-(3,5-Diethoxy-4-ethoxycarbonyl-benzyl)piperidin-4-yl]-5-methyl-nicotinamide] |

| SMILES | Ki [nM] |
| --- | --- |
| CCOc1cc(CN2CCC(NC(=O)c3cccc(C(N)=O)c3)CC2)ccc1Cl [Example 6] | 126 |
